In ChEMBL document CHEMBL4414590, “Discovery of SIAIS178 as an Effective BCR-ABL Degrader by Recruiting Von Hippel-Lindau (VHL) E3 Ubiquitin Ligase” (J Med Chem, 2019):
Calls of active or inactive are those of the source. No cut-off for these calls is given here.

Legend:
[1] = target: T1, von Hippel-Lindau disease tumor suppressor/Tyrosine-protein kinase ABL1/Breakpoint cluster region protein (Homo sapiens, UniProt P00519+P11274+P40337); experiment: Induction of ternary complex formation between VHL and BCR-ABL (unknown origin) expressed in HEK293 cells expressing N-terminal BCR-ABL LgBit fusion protein and N-terminal SmBit-VHL fusion protein at 1 uM incubated for 1 hr by NanoBit technology based luciferase complementation assay; assay type: cell-based
[2] = system: von Hippel-Lindau disease tumor suppressor/Tyrosine-protein kinase ABL1/Breakpoint cluster region protein (Homo sapiens), P00519+P11274+P40337 [G250E]; experiment: Protac activity against VHL/BCR-ABL G250E mutant (unknown origin) expressed in human U937 cells assessed as induction of BCR-ABL degradation incubated for 16 hrs by Western blot analysis; assay type: cell-based
[3] = target: T1, von Hippel-Lindau disease tumor suppressor/Tyrosine-protein kinase ABL1/Breakpoint cluster region protein; experiment: Protac activity against VHL/BCR-ABL in human K562 cells assessed as induction of BCR-ABL degradation at 100 nM incubated up to 24 hrs by Western blot analysis; assay type: cell-based; details: TDE = time-dependent effect
[4] = target: von Hippel-Lindau disease tumor suppressor/Proto-oncogene tyrosine-protein kinase Src (Homo sapiens) (UniProt P12931+P40337); experiment: Protac activity against VHL/Src in human K562 cells assessed as reduction in Src protein levels at 1 to 100 nM incubated for 16 hrs by Western blot analysis; assay type: cell-based
[5] = target: von Hippel-Lindau disease tumor suppressor/Tyrosine-protein kinase Yes (Homo sapiens) (UniProt P07947+P40337); experiment: Protac activity against VHL/YES in human K562 cells assessed as reduction in Yes protein levels at 1 to 100 nM incubated for 16 hrs by Western blot analysis; assay type: cell-based
[6] = Permeability in human Caco2 cells at 10 uM incubated for 120 mins by LC-MS/MS analysis; assay type: ADME, cell-based; details: caco-2, 2 h
[7] = target: Bcr/Abl fusion protein (Homo sapiens) (UniProt P00519+P11274); experiment: Inhibition of BCR-ABL in human K562 cells assessed as reduction in STAT5 phosphorylation at 1 to 100 nM by Western blot analysis; assay type: cell-based
[8] = target: von Hippel-Lindau disease tumor suppressor/Tyrosine-protein kinase Lck (Homo sapiens) (UniProt P06239+P40337); experiment: Protac activity against VHL/LCK in human K562 cells assessed as reduction in Lck protein levels at 1 to 100 nM incubated for 16 hrs by Western blot analysis; assay type: cell-based
[9] = target: T1, von Hippel-Lindau disease tumor suppressor/Tyrosine-protein kinase ABL1/Breakpoint cluster region protein; experiment: Induction of ternary complex formation between VHL and BCR-ABL (unknown origin) expressed in HEK293 cells expressing N-terminal BCR-ABL LgBit fusion protein and N-terminal SmBit-VHL fusion protein pre-treated with 10 uM dasatinib for 2 hrs followed by compound addition at 1 uM and further incubated for 1 hr by NanoBit technology based luciferase complementation assay; assay type: cell-based
[10] = target: T1, von Hippel-Lindau disease tumor suppressor/Tyrosine-protein kinase ABL1/Breakpoint cluster region protein; experiment: Protac activity against VHL/BCR-ABL in human K562 cells assessed as induction of BCR-ABL degradation pre-treated with 2.5 uM proteasome inhibitor MG132 for 2 hrs followed by compound addition at 100 nM and further incubated for 8 hrs by Western blot analysis; assay type: cell-based
[11] = target: von Hippel-Lindau disease tumor suppressor/Tyrosine-protein kinase ABL2 (Homo sapiens) (UniProt P42684+P40337); experiment: Protac activity against VHL/ABL2 in human K562 cells assessed as reduction in ABL2 protein levels at 1 to 100 nM incubated for 16 hrs by Western blot analysis; assay type: cell-based
[12] = system: von Hippel-Lindau disease tumor suppressor/Tyrosine-protein kinase ABL1/Breakpoint cluster region protein (Homo sapiens), P00519+P11274+P40337 [F317L]; experiment: Protac activity against VHL/BCR-ABL F317L mutant (unknown origin) expressed in human U937 cells assessed as induction of BCR-ABL degradation incubated for 16 hrs by Western blot analysis; assay type: cell-based
[13] = system: U-937; experiment: Growth inhibition of human U937 cells incubated for 2 days by CCK8 assay; assay type: functional, cell-based
[14] = system: K562; experiment: Antitumor activity against luciferse expressing human K562 cells xenografted in NOD/SCID mouse assessed as reduction in tumor burden at 5 to 15 mg/kg, ip QD for 12 days by bioluminescence imaging analysis; assay type: functional, organism-based
[15] = system: von Hippel-Lindau disease tumor suppressor/Tyrosine-protein kinase ABL1/Breakpoint cluster region protein (Homo sapiens), P00519+P11274+P40337 [T315A]; experiment: Protac activity against VHL/BCR-ABL T315A mutant (unknown origin) expressed in human U937 cells assessed as induction of BCR-ABL degradation incubated for 16 hrs by Western blot analysis; assay type: cell-based
[16] = target: T1, von Hippel-Lindau disease tumor suppressor/Tyrosine-protein kinase ABL1/Breakpoint cluster region protein; experiment: Protac activity against VHL/BCR-ABL in human K562 cells assessed as induction of BCR-ABL degradation pre-treated with 100 nM dasatinib for 2 hrs followed by compound addition at 100 nM and further incubated for 8 hrs by Western blot analysis; assay type: cell-based
[17] = system: K562; experiment: Growth inhibition of human K562 cells assessed as reduction in cell density at 20 times IC50 incubated for 12 hrs followed by drug wash-out and incubation in drug-free medium up to 144 hrs by CCK8 assay; assay type: functional, cell-based
[18] = system: HEK293; experiment: Growth inhibition of human HEK293 cells incubated for 2 days by CCK8 assay; assay type: cell-based; details: hek293, 48 h
[19] = system: K562; experiment: Induction of cell death in human K562 cells assessed as reduction in cell viability at 20 times IC50 incubated for 12 hrs followed by drug wash-out and incubation in drug-free medium up to 144 hrs by CCK8 assay; assay type: functional, cell-based
[20] = system: von Hippel-Lindau disease tumor suppressor/Tyrosine-protein kinase ABL1/Breakpoint cluster region protein (Homo sapiens), P00519+P11274+P40337 [V299L]; experiment: Protac activity against VHL/BCR-ABL V299L mutant (unknown origin) expressed in human U937 cells assessed as induction of BCR-ABL degradation incubated for 16 hrs by Western blot analysis; assay type: cell-based
[21] = target: von Hippel-Lindau disease tumor suppressor/Ephrin type-B receptor 4 (Homo sapiens) (UniProt P54760+P40337); experiment: Protac activity against VHL/EPHB4 in human K562 cells assessed as reduction in EPHB4 protein levels at 1 to 100 nM incubated for 16 hrs by Western blot analysis; assay type: cell-based
[22] = target: T1, von Hippel-Lindau disease tumor suppressor/Tyrosine-protein kinase ABL1/Breakpoint cluster region protein; experiment: Protac activity against VHL/BCR-ABL in NOD/SCID mouse xenografted with luciferse expressing human K562 cells assessed as induction of BCR-ABL degradation at 5 to 15 mg/kg, ip QD for 4 days by Western blotting analysis; assay type: functional, organism-based

T1 sequence (P00519 whole entry, looked up, the tested form may be a part): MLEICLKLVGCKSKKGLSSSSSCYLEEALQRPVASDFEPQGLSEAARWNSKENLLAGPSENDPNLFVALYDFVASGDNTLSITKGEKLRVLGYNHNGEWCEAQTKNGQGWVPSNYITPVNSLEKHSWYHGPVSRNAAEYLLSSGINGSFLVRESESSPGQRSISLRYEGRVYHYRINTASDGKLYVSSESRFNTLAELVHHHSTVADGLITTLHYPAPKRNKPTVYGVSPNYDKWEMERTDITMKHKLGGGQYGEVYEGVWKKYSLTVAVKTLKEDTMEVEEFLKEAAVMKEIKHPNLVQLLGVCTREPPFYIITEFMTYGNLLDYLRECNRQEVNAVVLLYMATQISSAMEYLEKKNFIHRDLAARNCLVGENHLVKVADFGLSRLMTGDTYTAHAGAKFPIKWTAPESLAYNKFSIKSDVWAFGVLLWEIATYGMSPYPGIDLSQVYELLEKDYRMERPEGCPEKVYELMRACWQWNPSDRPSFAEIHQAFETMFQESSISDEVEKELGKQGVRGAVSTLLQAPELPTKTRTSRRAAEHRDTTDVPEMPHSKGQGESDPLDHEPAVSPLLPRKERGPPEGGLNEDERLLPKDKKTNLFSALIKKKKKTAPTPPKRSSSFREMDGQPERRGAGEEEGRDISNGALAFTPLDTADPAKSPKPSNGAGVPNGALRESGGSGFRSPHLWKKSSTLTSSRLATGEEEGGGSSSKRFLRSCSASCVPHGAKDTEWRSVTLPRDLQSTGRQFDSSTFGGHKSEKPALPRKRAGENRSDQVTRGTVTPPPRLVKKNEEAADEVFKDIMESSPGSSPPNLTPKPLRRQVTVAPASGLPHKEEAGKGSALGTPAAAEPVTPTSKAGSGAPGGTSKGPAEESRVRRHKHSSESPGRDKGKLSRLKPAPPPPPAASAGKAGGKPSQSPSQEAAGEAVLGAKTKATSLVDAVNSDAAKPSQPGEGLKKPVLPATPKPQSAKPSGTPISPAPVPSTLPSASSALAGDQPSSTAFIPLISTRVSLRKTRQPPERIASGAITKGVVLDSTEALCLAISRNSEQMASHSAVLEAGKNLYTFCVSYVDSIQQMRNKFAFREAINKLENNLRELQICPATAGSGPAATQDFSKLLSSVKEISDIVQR
T1 sequence (P11274 whole entry, looked up, the tested form may be a part): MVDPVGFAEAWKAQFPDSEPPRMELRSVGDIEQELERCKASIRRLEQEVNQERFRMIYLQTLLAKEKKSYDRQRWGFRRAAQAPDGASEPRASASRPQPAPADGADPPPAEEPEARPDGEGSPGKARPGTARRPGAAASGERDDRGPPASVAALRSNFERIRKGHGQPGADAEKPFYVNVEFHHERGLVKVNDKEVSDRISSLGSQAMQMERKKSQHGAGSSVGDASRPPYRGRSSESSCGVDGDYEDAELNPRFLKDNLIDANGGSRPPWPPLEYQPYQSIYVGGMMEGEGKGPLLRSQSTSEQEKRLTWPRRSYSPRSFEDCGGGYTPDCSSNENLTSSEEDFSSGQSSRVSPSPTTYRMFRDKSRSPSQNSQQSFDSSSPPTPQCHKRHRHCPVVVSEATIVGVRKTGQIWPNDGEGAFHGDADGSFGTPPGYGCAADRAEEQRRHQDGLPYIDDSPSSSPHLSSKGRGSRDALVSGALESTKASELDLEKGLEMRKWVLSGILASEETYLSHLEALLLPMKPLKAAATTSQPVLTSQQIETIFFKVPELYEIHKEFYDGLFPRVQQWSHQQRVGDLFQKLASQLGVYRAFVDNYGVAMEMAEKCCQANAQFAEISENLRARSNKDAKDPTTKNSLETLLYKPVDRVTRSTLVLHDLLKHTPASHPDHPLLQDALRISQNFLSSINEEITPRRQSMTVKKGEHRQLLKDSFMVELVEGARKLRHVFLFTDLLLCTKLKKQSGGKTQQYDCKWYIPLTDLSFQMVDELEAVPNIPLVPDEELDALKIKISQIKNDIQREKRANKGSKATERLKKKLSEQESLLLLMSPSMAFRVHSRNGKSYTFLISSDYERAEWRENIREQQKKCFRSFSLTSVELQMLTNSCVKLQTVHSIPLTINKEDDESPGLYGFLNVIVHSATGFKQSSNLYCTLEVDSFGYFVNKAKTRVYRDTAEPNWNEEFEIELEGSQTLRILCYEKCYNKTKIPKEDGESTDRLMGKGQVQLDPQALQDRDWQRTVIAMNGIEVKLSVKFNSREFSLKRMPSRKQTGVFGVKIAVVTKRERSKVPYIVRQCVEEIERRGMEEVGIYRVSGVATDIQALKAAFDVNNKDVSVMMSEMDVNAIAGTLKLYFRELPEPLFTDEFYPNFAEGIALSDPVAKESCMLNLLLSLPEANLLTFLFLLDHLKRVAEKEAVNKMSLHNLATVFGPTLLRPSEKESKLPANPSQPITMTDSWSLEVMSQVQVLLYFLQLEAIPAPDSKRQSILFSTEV
T1 sequence (P40337 whole entry, looked up, the tested form may be a part): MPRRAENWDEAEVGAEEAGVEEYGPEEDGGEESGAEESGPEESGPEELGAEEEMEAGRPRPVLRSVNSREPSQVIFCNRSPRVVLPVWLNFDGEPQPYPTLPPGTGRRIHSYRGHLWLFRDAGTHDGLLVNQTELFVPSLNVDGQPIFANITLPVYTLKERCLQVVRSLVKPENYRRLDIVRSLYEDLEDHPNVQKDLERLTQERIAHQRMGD
Sequence of Bcr/Abl fusion protein (Homo sapiens) (P00519 whole entry, looked up, the tested form may be a part): as the sequence (P00519 whole entry, looked up, the tested form may be a part) above
Sequence of Bcr/Abl fusion protein (Homo sapiens) (P11274 whole entry, looked up, the tested form may be a part): as the sequence (P11274 whole entry, looked up, the tested form may be a part) above

Cc1nc(Nc2ncc(C(=O)Nc3c(C)cccc3Cl)s2)cc(N2CCN(C(=O)CCCCCCC(=O)N[C@H](C(=O)N3C[C@H](O)C[C@H]3C(=O)NCc3ccc(-c4scnc4C)cc3)C(C)(C)C)CC2)n1
Activity [1]: Active | Activity [2]: Dose-dependent effect | Activity [3]: Tde | Activity [4]: Dose-dependent effect | Activity [5]: inactive | permeability [6]: Permeable | inhibition [7]: Active | Activity [8]: inactive | Activity [9]: inactive | Activity [10]: inactive | Activity [11]: Dose-dependent effect | Activity [12]: Dose-dependent effect | growth inhibition (GI) [13]: inactive | Activity [14]: Active | Activity [15]: inactive | Activity [16]: inactive | growth inhibition (GI) [17]: Active | growth inhibition (GI) [18]: Non-Toxic | Activity [19]: Active | Activity [20]: Dose-dependent effect | Activity [21]: Dose-dependent effect | Activity [22]: Dose-dependent effect
